According to US20120232107A1, “NON-PEPTIDE ANTAGONISTS OF GASTRIN RELEASING PEPTIDE” (The Government of the United States of America as …, priority 2003, published 2012):
Entries after “also recorded” stand apart in the source; their conditions may differ.

How the values were obtained:
[1] = target: T1, GRP (Homo sapiens, UniProt P07492); experiment: IP3 analysis for GRP in H-1299 cells; assay type: cell-based; settings: peptide GRP; IP3 or Ca2+ levels induced by GRP in H1299 cells
T1 construct: GRP is a 27 amino acid peptide; purchased Peninsula (S. Carlos, Calif.); host or cells: synthetic peptide
T1 sequence (P07492 24-50 limits assumed): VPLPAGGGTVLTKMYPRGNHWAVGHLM
Description: This cell line was obtained from ATCC and cultured as the other cell lines. The signal transduction pathway for GRP includes elevation of intracellular levels of IP3 and Ca^2+ and these were investigated as previously shown (Ryan et al. (1998) J. Biol. Chem., 273, 13613-13624). Briefly, to quantify IP3, contents cells were subcultured into 24-well plates (5×10^4 cells/well). After a 24 h incubation period at 37° C., the cells were incubated with 3 μCi/ml myo-[^3H]inositol in growth medium supplemented with 2% FBS for an additional 24 h. Incubation volumes were 500 μl of assay buffer/well containing 135 mM sodium chloride, 20 mM HEPES (pH 7.4), 2 mM calcium chloride, 1.2 mM magnesium sulfate, 1 mM EGTA, 20 mM lithium chloride, 11.1 mM glucose, and 0.05% BSA (v/v) with or without any of the molecules studied at 37° C. for 30 min. Experiments were terminated with 1 ml of ice-cold hydrochloric acid/methanol (0.1%, v/v). [^3H]IP3 was eluted off Dowex AG-1-X8 anion exchange columns with 2 ml of 1 mM ammonium formate and 100 mM formic acid. Each of the eluates was collected and mixed with 10 ml of scintillation mixture (BioSafe, Research Products International Corp, Mount Prospect, Ill.), and the radioactivity was measured in a LS 3801 β counter (Beckman, Somerset, N.J.).

[2] = tested on: Bovine retinal microvascular endothelial cells; experiment: Cord formation assay in Matrigel; assay type: cell-based
Description: Formation of tube-like structures was performed as described in Kubota et al. (1988) J. Cell Biol. 107, 1589-1598; Nam et al. (2003) Phytother. Res. 17, 107-111; and Macpherson et al. (2003) Mol Cancer Ther 2, 845-54. Briefly, a thin layer of Matrigel (Collaborative Biomedical Products, Bedford, Mass.) was allowed to polymerize at the bottom of 24-well plates. […] After an overnight incubation at 37° C., the tubular structures were photographed (3 pictures per well at 10×) and the number of knots per photographic field were counted as a measure of lattice complexity.

[3] = tested on: GRP-induced angiogenesis; experiment: Directed in vivo angiogenesis assay (DIVAA); set-up: species or system mice; settings: 1 nM GRP in angioreactors, nude mice, 11 days
Description: Analysis and quantitation of angiogenesis was done using DIVAA as previously described (Martinez et al. (2002) J Natl Cancer Inst 94, 1226-37). Briefly, 10 mm long surgical-grade silicone tubes with only one end open (angioreactors) were filled with 20 μl of matrigel alone or mixed with GRP and the small molecules at the indicated concentrations. After the matrigel solidified, the angioreactors were implanted into the dorsal flanks of athymic nude mice (NCI colony). After 11 days, the mice were injected iv with 25 mg/ml FITC-dextran (100 μl/mouse, Sigma) 20 min before removing angioreactors. Quantitation of neovascularization in the angioreactors was determined as the amount of fluorescence trapped in the implants and was measured in a HP Spectrophotometer (Perkin Elmer).

[4] = tested on: lung cancer cell line H1299; experiment: Proliferation assay (growth inhibition MTT); assay type: cell-based; settings: H1299, serum-free medium, 5 days
Description: A. Tumor cells (from a lung cancer cell line, H1299) were seeded in 96-well plates at a density of 2.0×10^5 cells per well in serum-free medium containing different concentrations of the test agent, the small molecule inhibitor compound XV′ (77427). After 5 days in culture, the number of viable cells per well was estimated by the growth inhibition MTT assay (as reported in Iwai et al. (1999) Lung Cancer 23, 209-22).

[5] = tested on: cell line A345; experiment: Clonogenic assay in soft agar; assay type: cell-based; settings: A345, 3 weeks
Description: B. Cells from the cell line […] were grown in substrate-independent conditions (clonogenic assay) as previously published (Iwai et al., supra).

[6] = tested on: H1299 xenograft; experiment: In vivo tumor growth (xenograft experiment); set-up: species or system mice
Description: Thirty female athymic nude mice from the NIH colony in Frederick (MD) were injected subcutaneously with 1.0×10^7 H1299 cells/mouse. Two weeks later, all the mice had developed palpable tumors under the skin and at this time they were randomly divided in three groups. Three times a week, each individual tumor was measured (length, height, thickness) and every mouse received an intratumoral injection, according to their group. Group 1 (control) received 100 μl PBS (negative control); group 2 received 100 μl 0.5 μM compound XV′ (77427) in PBS; and group 3 received 100 μl 5 μM compound XV′ (77427) in PBS. When the tumor burden became unbearable (larger than 2000 mm^3), the mice were sacrificed.

Action on second messengers [1]: Antagonists
Structure (SMILES): Nc1nc(Cl)cc(NCCO)n1 [compound 77427]
number of knots per photographic field ([2]; 5 nM GRP and 0.5 μM compound added together): 12±4
complexity of the tubular lattice ([2]; 5 nM GRP plus 0.5 μM compound): marked decrease; also recorded: reduces network complexity; also recorded: greatly reduced
Biological activity (cord formation) ([2]; GRP-induced cord formation): Inhibits cord
inhibition of GRP-induced angiogenesis [3]: dose-dependent inhibition
inhibition of GRP-induced angiogenesis ([3]; listed as XV′): inhibited
growth inhibitory action on lung cancer cells (MTT) [4]: modest dose-dependent growth inhibitory action
number of colonies in soft agar [5]: reduces the number of colonies
tumor size ([6]; after a single intratumoral injection): significantly reduced
tumor size ([6]; after the second intratumoral injection): all but disappeared
